Reference: US20210361750A1, “Anti-Viral Lactoferrin Facemask” (priority 2020, published 2021)

Assays:
Vero E6 cells = details: control without virus, 10 mg/mL
SARS-CoV-2 = assay: Cyclodextrin testing: antiviral activity against SARS-CoV-2 in Vero E6 cells (CPE); type: cell-based; details: pH 7; lactoferrin alone 10 mg/mL, cyclodextrin alone 10 mg/mL, or lactoferrin 5 mg/mL + cyclodextrin 10 mg/mL

In the case of “cyclodextrin [cyclodextrin alone, reference compound]”, the “cytopathic effect on the cells” value (Vero E6 cells) is reported as “neither the lactoferrin alone (10 mg/mL) or the cyclodextrin alone (10 mg/mL) had a cytopathic effect” and the “antiviral activity (cytopathic effect)” value (SARS-CoV-2) is reported as “none of the experiments showed antiviral activity”.
